Test results published in patent publication US12186423B2, “Brightening booster technology and brightening ampule” (MARY KAY INC., priority 2020, dated 2025).
Values joined by “and” are separate entries in the source; they are usually repeats but may differ in a detail not shown here. Equal values may be shown once.

What was measured:
B16-F1 melanocytes [1] = assay type: cell-based; settings: mouse
Protocol: (§1) The endpoint of these assays are a spectrophotometric measurement of melanin production and cellular viability. B16-F1 melanocytes were cultivated to subconfluence at 37° C. in 10% CO2 in T150 tissue culture flasks in standard DMEM growth medium supplemented with 10% fetal bovine serum (Mediatech) and 1% penicillin/streptomycin. Cells in one confluent T150 tissue culture flask were trypsinized and resuspended in DMEM, and 1% of the resuspended cells were seeded in 200 μl total volume DMEM in each well of a 96-well tissue culture plate. For phenol red-free media, 200 mM L-glutamine (20 ml/L) (Mediatech) was also added to the DMEM growth medium. Active ingredients were diluted to 1% in DMEM growth medium. Once cells reached about 20% confluence, cells were treated with any one of the active ingredients, combination of ingredients, or compositions having said combinations disclosed in the specification by replacing the DMEM growth media with 200 μl DMEM growth media containing diluted active ingredients. Cells were also treated with 1 mM kojic acid as a positive control. Cells were then incubated for 5-6 days at 37° C. in 10% CO2. Following incubation, melanin secretion was measured by absorbance of the whole plate at 405 nm (OD 405) (whole plate reading). […] Percent viability of the cell samples was calculated using the following formula: % Viability=(Mean OD 490 of Sample/Mean OD 490 of Control). […] Percent change in pigmentation of the cell samples was calculated using the following formula: % Change=% pigmentation of Sample−% pigmentation of Control.

B16-F1 melanocytes [2] = experiment: B16 pigmentation assay (melanin production, absorbance at 405 nm); assay type: cell-based, mouse; settings: for OD 405 (single readings of triplicate): active ingredients diluted to 1% in DMEM, whole plate reading; for OD 405 (single readings of triplicate) / OD 405 AVG: kojic acid 1 mM, 5-6 days; for OD 405 AVG: average absorbance at 405 nm of triplicate, actives diluted to 1%; for % INHIBITION: vs untreated cells; for % INHIBITION / % Inhibition (change in pigmentation): negative value = less pigmentation; for Melanogenesis (OD 405, single readings of triplicate): alone and combined, kojic acid positive control; for Melanogenesis AVG (OD 405): average of triplicate; for % Inhibition (change in pigmentation): viability-corrected, vs untreated
Protocol: as §1, with “Melanogenesis is the process by which melanocytes produce melanin, a naturally produced pigment that imparts color to skin, hair, and eyes. Inhibiting melanogenesis is beneficial to prevent skin darkening and lighten dark spots associated with aging. […] The” for “The”, “Active ingredients were diluted to 1% in DMEM growth medium.” left out

[3] = second experiment, 2% niacinamide, 2% navy bean, 0.2% ferulic acid

| SMILES | % Viability (B16-F1 melanocytes [1]) | Viability AVG (OD 490) (B16-F1 melanocytes [1]) | OD 405 (single readings of triplicate) (B16-F1 melanocytes [2]; first experiment) | OD 405 AVG (B16-F1 melanocytes [2]; first experiment) | % INHIBITION (B16-F1 melanocytes [2]; first experiment) | Melanogenesis (OD 405, single readings of triplicate) (B16-F1 melanocytes [2]; [3]) | Melanogenesis AVG (OD 405) (B16-F1 melanocytes [2]; [3]) | % Inhibition (change in pigmentation) (B16-F1 melanocytes [2]; second experiment) | OD 405 (single readings of triplicate) (B16-F1 melanocytes [2]; first experiment, listed as CONTROL) | effect on pigmentation / melanin secretion (in words) (B16-F1 melanocytes [2]; first experiment) | inhibited pigmentation / melanin secretion (B16-F1 melanocytes [2]; second experiment, 2% navy bean, 0.2% ferulic acid, 2% niacinamide) |
| --- | --- | --- | --- | --- | --- | --- | --- | --- | --- | --- | --- |
| NC(=O)c1cccnc1 [Niacinamide (B3), Niacinamide] | 100% | 1.725 | 0.775 and 0.766 and 0.78 | 0.774 | 3.941% | 0.775 and 0.766 and 0.78 | 0.774 | 3.58% |  |  |  |
| O=c1cc(CO)occ1O [Kojic Acid, kojic acid] | 98.1% | 1.687 |  | 0.328 | −55.979% | 0.31 and 0.333 and 0.34 | 0.328 | −55.14% | 0.31 and 0.333 and 0.34 |  |  |
| COc1cc(/C=C/C(=O)O)ccc1O [Ferulic Acid (FA), Ferulic acid] | 98.4% | 1.692 | 0.367 and 0.384 and 0.391 | 0.381 | −48.858% | 0.367 and 0.384 and 0.391 | 0.381 | −48.03% |  | inhibited pigmentation to some degree | 48.03% |
